Consider one molecule from publication PMC8222713, “Variation of Two S3b Residues in KV4.1–4.3 Channels Underlies Their Different Modulations by Spider Toxin κ-LhTx-1” (Frontiers in Pharmacology, 2021).

Where a SMILES comes first, the peptide text is derived from it. Bridges are numbered along the chain shown (N, C = ends).

The target in one assay is T1, KV4.1 channel (mKV4.1) (Mus musculus, UniProt Q03719).
T1 construct: expressed in transfected cells; host or cells: CHO-K1 (transient, co-transfected with pEGFP-N1)
T1 sequence (Q03719 1-651): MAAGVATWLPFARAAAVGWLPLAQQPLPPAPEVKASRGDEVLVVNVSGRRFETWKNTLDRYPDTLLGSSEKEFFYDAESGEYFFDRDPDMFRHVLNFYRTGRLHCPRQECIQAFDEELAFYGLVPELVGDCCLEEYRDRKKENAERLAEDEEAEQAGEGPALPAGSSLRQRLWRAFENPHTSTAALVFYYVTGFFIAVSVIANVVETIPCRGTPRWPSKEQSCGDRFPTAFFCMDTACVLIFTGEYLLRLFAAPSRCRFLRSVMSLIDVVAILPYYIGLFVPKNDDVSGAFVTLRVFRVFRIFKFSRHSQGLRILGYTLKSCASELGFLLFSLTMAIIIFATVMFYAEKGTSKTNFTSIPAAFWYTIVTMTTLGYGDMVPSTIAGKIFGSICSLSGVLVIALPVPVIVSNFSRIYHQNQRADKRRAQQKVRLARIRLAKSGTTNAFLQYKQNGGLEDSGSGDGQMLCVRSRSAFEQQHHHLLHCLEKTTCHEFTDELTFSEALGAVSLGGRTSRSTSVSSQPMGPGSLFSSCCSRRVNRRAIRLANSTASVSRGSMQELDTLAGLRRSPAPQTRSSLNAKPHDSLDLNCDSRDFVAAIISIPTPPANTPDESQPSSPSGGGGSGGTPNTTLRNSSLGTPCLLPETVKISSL
The assay is described as follows: Whole-cell patch clamp, KV4.1 in CHO-K1 cells. The class given is cell-based. The method, then: The cDNA of hKV1.1, hKV1.3, rKV1.4, hKV1.5, rKV2.1, hKV3.1–3.4, mKV4.1, rKV4.2, and rKV4.3 were subcloned in the eukaryotic expression vector pCDNA3.1 or pCMV-blank. Channel mutants were made by a site-directed mutation method. Briefly, a pair of oppositely directed primers with 15 bp overlap at their 5′ ends and the designed mutation site were used to amplify the parental channel plasmid, then the PCR mix was treated with DpnI to remove the template. 10 μL digestion mix was directly used to transform 100 μL DH5α chemical competent cells. The correct mutation made by this procedure was finally confirmed by DNA sequencing. CHO-K1 cells (ATCC® CCL-61™) were grown in DMEM-F12 mixed medium (1:1) supplemented with 10% FBS and maintained in standard conditions (saturated humidity, 37°C, 5% CO2). Channel plasmid was co-transfected with pEGFP-N1 (encodes the green fluoresence protein) into CHO-K1 cells using lipofectamine 2000 following the manufacturer’s instructions. 4–6 h after transfection, cells were seeded onto poly-lysine (PLL) coated coverslips, and 24–36 h later, transfected cells were ready for patch-clamp analysis. It should be note that KV4.2 and its mutants were also co-expressed with hKChIP1 to promote their functional expressions.
Whole-cell patch clamp recording was performed in an electrophysiology platform equipped with MultiClamp 700B amplifier and Axon Digidata 1550 AD/DA convertor (Axon Instruments, Irvine, CA, United States). Data were acquired using the pClamp software (Axon Instruments, Irvine, CA, United States). All experiments were performed at room temperature. The bath solution contains (in mM): 140 NaCl, 5 KCl, 1 MgCl2, 2 CaCl2, 10 glucose, and 10 HEPES (pH = 7.3). The pipette solution contains (in mM): 140 KCl, 2.5 MgCl2, 11 EGTA, and 10 HEPES (pH = 7.3). Series resistance was kept below 10 MΩ and compensated to 80%. The concentration–response curves were fitted by a Hill logistic equation to estimate the potency (IC50) of the toxin. The whole cell conductance (G) at each depolarizing voltage (V) was determined using the equation: G = I/(V−Vrev), where I and Vrev represents the current amplitude and the reversal potential, respectively. In the present study, Vrev for K^+ current is determined to be −85.61 mV using the Nernst equation. G-V curve was obtained by plotting the normalized G as a function of V and fitted by the Boltzmann equation: y = 1/{1 + exp [(Va−V)/K]}, in which Va, V, and K represents half-maximum activation voltage, test voltage and slope factor, respectively. The steady-state fast inactivation of KV4 channels was measured using a classical two-pulses protocol: cell was held at −120 mV, and a train of conditional voltages (−120–40 mV, in 10 mV increment, 1,000 ms) were applied to induce channel inactivation, followed by a +60 mV test pulse (300 ms) to assess the proportion of non-inactivated channels; the sweep interval was set to 10 s. Currents at the test pulse (I) were normalized to the maximum value (Imax) and plotted as a function of the conditional voltage (V), the curve was fitted by the Boltzmann equation: I/Imax = A + (1−A)/{1 + exp [(V−Vh)/K]}, where Vh is the half-maximum inactivation voltage, A represents the minimum channel availability, and K is the slope factor. Gating currents of KV4.1–4.3 channels were measured as previously reported ([Tilley et al., 2019]). Briefly, the ionic pore currents were abolished by replacing K^+ with NMDG^+ in the pipette solution, and 10 µM Cs^+ was present in the bath solution to occupy the selectivity filter of KV channels to prevent decay of the gating currents during recording.
Data were presented as MEAN ± SEM, n represents the number of separate experimental cells. Data were analyzed using the software Clampfit 10.5 (Axon Instruments, Irvine, CA, United States), Graphpad Prism 5.01 (GraphPad Software, La Jolla, CA, United States) and Excel 2010 (Microsoft Corporation, Redmond, WA, United States). […]
In general terms: The patch-clamp technique gives a direct electrical read-out from membranes.

The subject of another assay is KV4.2/277LV/AA mutant. The assay is described as follows: Whole-cell patch clamp, KV4.2/277LV/AA (with hKChIP1) in CHO-K1 cells. In kind it is cell-based, rat. The settings on record: KV4.2/277LV/AA at Va depolarizing voltage, n = 5–7. The procedure:
The cDNA of hKV1.1, hKV1.3, rKV1.4, hKV1.5, rKV2.1, hKV3.1–3.4, mKV4.1, rKV4.2, and rKV4.3 were subcloned in the eukaryotic expression vector pCDNA3.1 or pCMV-blank. Channel mutants were made by a site-directed mutation method. Briefly, a pair of oppositely directed primers with 15 bp overlap at their 5′ ends and the designed mutation site were used to amplify the parental channel plasmid, then the PCR mix was treated with DpnI to remove the template. 10 μL digestion mix was directly used to transform 100 μL DH5α chemical competent cells. The correct mutation made by this procedure was finally confirmed by DNA sequencing. […] 4–6 h after transfection, cells were seeded onto poly-lysine (PLL) coated coverslips, and 24–36 h later, transfected cells were ready for patch-clamp analysis. […]
Whole-cell patch clamp recording was performed in an electrophysiology platform equipped with MultiClamp 700B amplifier and Axon Digidata 1550 AD/DA convertor (Axon Instruments, Irvine, CA, United States). […] The whole cell conductance (G) at each depolarizing voltage (V) was determined using the equation: G = I/(V−Vrev), where I and Vrev represents the current amplitude and the reversal potential, respectively. In the present study, Vrev for K^+ current is determined to be −85.61 mV using the Nernst equation. […] Gating currents of KV4.1–4.3 channels were measured as previously reported ([Tilley et al., 2019]). […]

The mark [1] stands for this setting: 10 μM κ-LhTx-1, KV4.1, two-pulse protocol, mean ± SEM, n = 5.

On to `CC[C@H](C)[C@@H]1NC(=O)[C@H](CCC(N)=O)NC(=O)[C@@H]2CSSC[C@@H]3NC(=O)[C@H](CC(C)C)NC(=O)[C@H](CC(N)=O)NC(=O)[C@H](CCSC)NC(=O)[C@H](Cc4c[nH]c5ccccc45)NC(=O)[C@H](CO)NC(=O)[C@H](C)NC(=O)[C@@H](NC(=O)[C@H](CCC(=O)O)NC(=O)[C@H](CCC(N)=O)NC(=O)[C@H](C)NC(=O)[C@H](CC(=O)O)NC(=O)[C@@H](N)CCC(=O)O)CSSC[C@H](NC(=O)[C@H](CSSC[C@@H](C(=O)N[C@@H](CCCCN)C(=O)N[C@@H](Cc4ccc(O)cc4)C(=O)N[C@@H](CCCCN)C(=O)N[C@@H](CC(C)C)C(N)=O)NC(=O)[C@H](Cc4c[nH]c5ccccc45)NC1=O)NC(=O)[C@H](CCCCN)NC(=O)[C@H](CCCCN)NC(=O)[C@H](CCC(=O)O)NC(=O)CNC3=O)C(=O)N[C@@H](CCC(=O)O)C(=O)NCC(=O)N[C@@H](Cc1ccc(O)cc1)C(=O)N[C@@H](C(C)C)C(=O)N2` [κ-LhTx-1] (H-EDAQECASWMNLCGEKKCCEGYVCQIWCKYKL-NH2; disulfide 6-19, 13-24, 18-28 (inferred); N-terminus and C-terminus assumed), for which the “Va (steady-state activation)” value on KV4.1 channel (mKV4.1) (10 μM κ-LhTx-1, KV4.1, Boltzmann fit of G-V curve, mean ± SEM, n = 5) was 95.20 ± 1.68 mV. The “k, slope factor (steady-state activation)” value on KV4.1 channel (mKV4.1) (10 μM κ-LhTx-1, KV4.1, G-V, mean ± SEM, n = 5) is 16.14 ± 1.78 mV. For the same molecule, at KV4.1 channel (mKV4.1) (setting [1]), the “Vh (steady-state inactivation)” value is recorded as -32.48 ± 3.44 mV and the “k, slope factor (steady-state inactivation)” value was determined as 22.88 ± 0.19 mV. At KV4.1 channel (mKV4.1) (KV4.1), the reversibility of inhibition entry is on record as “in a reversible manner”. For the same molecule, on KV4.1 channel (mKV4.1) (KV4.1, 10 µM, inhibition ratio at each depolarizing voltage, n = 5–8), the voltage-dependence of inhibition result is recorded as “affected by voltage to a much less extent”. At KV4.1 channel (mKV4.1) (KV4.1, 10 µM, n = 5–8), the “I-V: current inhibition below +60 mV” value is given as “fully inhibited the currents at voltages below +60 mV”. Besides, on KV4.1 channel (mKV4.1) (KV4.1, 10 µM, strong depolarization, n = 5–8), the “I-V: reopening of toxin-bound channels” value is listed as “only depolarizations stronger than +70 mV could partially reopen the toxin-bound channels”. Further, the maximum inhibition entry on KV4.1 channel (mKV4.1) (KV4.1, saturating dose 10 μM, +30 mV) was “fully inhibit”. Further, the “current inhibition at Va” value at KV4.1 channel (mKV4.1) (KV4.1 at Va depolarizing voltage) is on record as “almost fully inhibited”. In addition, the “∆Va (steady-state activation)” value on KV4.1 channel (mKV4.1) (Va shift by 10 μM κ-LhTx-1 vs control, KV4.1, mean ± SEM) came to 98.28 ± 2.66 mV. The “∆Vh (steady-state inactivation)” value at KV4.1 channel (mKV4.1) (Vh shift by 10 μM κ-LhTx-1 vs control, KV4.1, mean ± SEM) came out at 29.27 ± 2.05 mV. In addition, the “effect of mutation on toxin inhibition” value in the assay on KV4.2/277LV/AA mutant is given as “profoundly weakened the effect”.
